Results as given in ChEMBL document CHEMBL5584201, “Amphiphilic tribasic galactosamines potentiate rifampicin in Gram-negative bacteria at low Mg++/Ca++concentrations” (Bioorg Med Chem Lett, 2024).

Columns and labels:
Acinetobacter baumannii [1] = test: Potentiation of rifampicin-induced antibacterial activity against multidrug resistant Acinetobacter baumannii clinical isolate 110193 assessed as fold change in rifampicin MIC at 1/4 MIC in low salt containing media by Mueller-Hinton broth based assay; assay type: functional
Acinetobacter baumannii [2] = test: Potentiation of rifampicin-induced antibacterial activity against Acinetobacter baumannii 92247 assessed as rifampicin MIC at 16 microg/ml in high concentration of Ca++ and Mg++ containing media by Mueller-Hinton broth based assay; assay type: functional; settings: dose 16 µg/ml
Acinetobacter baumannii [3] = test: Potentiation of rifampicin-induced antibacterial activity against Acinetobacter baumannii ATCC 17978 assessed as rifampicin MIC at 2 to 8 microg/ml in high concentration of Ca++ and Mg++ containing media by Mueller-Hinton broth based assay; assay type: functional; settings: dose 2-8 µg/ml
Escherichia coli [4] = test: Potentiation of rifampicin-induced antibacterial activity against Escherichia coli […] assessed as fold change in rifampicin MIC at 16 microg/ml in high concentration of Ca++ and Mg++ containing media by Mueller-Hinton broth based assay; assay type: functional; settings: dose 16 µg/ml
Pseudomonas aeruginosa [5] = test: Potentiation of rifampicin-induced antibacterial activity against Pseudomonas aeruginosa PAO1 assessed as rifampicin MIC at 2 to 8 microg/ml in high concentration of Ca++ and Mg++ containing media by Mueller-Hinton broth based assay; assay type: functional; settings: dose 2-8 µg/ml
Acinetobacter baumannii [6] = test: Antibacterial activity against Acinetobacter baumannii 92247 in high concentration of Ca++ and Mg++ containing media by Mueller-Hinton broth based assay; assay type: functional
[7] = Cytotoxicity against human HepG2 cells assessed as cell viability at 9 uM relative to control; assay type: toxicity, cell-based; settings: read-out: Activity
Acinetobacter baumannii [8] = test: Potentiation of rifampicin-induced antibacterial activity against multidrug resistant Acinetobacter baumannii LAC-4 assessed as fold change in rifampicin MIC at 1/4 MIC in low salt containing media by Mueller-Hinton broth based assay; assay type: functional
Pseudomonas aeruginosa [9] = test: Antibacterial activity against Pseudomonas aeruginosa PAO1 in high concentration of Ca++ and Mg++ containing media by Mueller-Hinton broth based assay; assay type: functional
Pseudomonas aeruginosa [10] = test: Potentiation of rifampicin-induced antibacterial activity against Pseudomonas aeruginosa PAO1 assessed as fold change in rifampicin MIC in low salt containing media by Mueller-Hinton broth based assay; assay type: functional
Escherichia coli [11] = test: Potentiation of rifampicin-induced antibacterial activity against Escherichia coli ATCC 25922 assessed as rifampicin MIC at 16 microg/ml in high concentration of Ca++ and Mg++ containing media by Mueller-Hinton broth based assay; assay type: functional; settings: dose 16 µg/ml
Pseudomonas aeruginosa [12] = test: Antibacterial activity against Pseudomonas aeruginosa PA262 in high concentration of Ca++ and Mg++ containing media by Mueller-Hinton broth based assay; assay type: functional
Pseudomonas aeruginosa [13] = test: Potentiation of rifampicin-induced antibacterial activity against Pseudomonas aeruginosa PA262 assessed as fold change in rifampicin MIC at 2 to 8 microg/ml in high concentration of Ca++ and Mg++ containing media by Mueller-Hinton broth based assay; assay type: functional; settings: dose 2-8 µg/ml

For CCCCCCCCO[C@@H]1O[C@H](CN)[C@H](N)[C@H](OCc2ccc3ccccc3c2)[C@H]1N, the “fold change (FC)” value (Acinetobacter baumannii [1]) was 64, the MIC (Acinetobacter baumannii [2]) was 16 µg/mL and the MIC (Acinetobacter baumannii [3]) was 4 µg/mL. The “fold change (FC)” value (Escherichia coli [4]) was 8, the MIC (Pseudomonas aeruginosa [5]) was 8 µg/mL and the MIC (Acinetobacter baumannii [6]) was ≥ 64 µg/mL. The viability at 9 µM [7] was 85%, the “fold change (FC)” value (Acinetobacter baumannii [8]) was 64 and the MIC (Pseudomonas aeruginosa [9]) was > 128 µg/mL. The “fold change (FC)” value (Pseudomonas aeruginosa [10]) was 2, the MIC (Escherichia coli [11]) was 16 µg/mL and the MIC (Pseudomonas aeruginosa [12]) was > 128 µg/mL. For the same molecule, the “fold change (FC)” value (Pseudomonas aeruginosa [13]) was 1.
